According to patent US20260364213A1, “RADIOLABELED COMPOUNDS OF TRIMETHOPRIM AND USES THEREOF” (THE TRUSTEES OF THE UNIVERSITY OF PENNSYLVANIA, priority 2023, published 2026):
“Also recorded” adds a separate entry of the source.

What was measured:
eDHFR-YFP = molecular target: T1, eDHFR-YFP (Escherichia coli, UniProt P0ABQ4); test: Radioligand binding to eDHFR-YFP expressing cells; design: species or system E. coli
T1 sequence (P0ABQ4 1-159): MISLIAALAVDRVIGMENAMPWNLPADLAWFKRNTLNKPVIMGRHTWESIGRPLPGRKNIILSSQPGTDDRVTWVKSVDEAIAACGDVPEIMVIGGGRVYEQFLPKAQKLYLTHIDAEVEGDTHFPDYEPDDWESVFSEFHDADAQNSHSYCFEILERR
Method: Due to the high specific activity of [^211At]At-TMP that limits its working concentration to pM range, [^125I]I-TMP was used for saturation binding studies to determine Bmax.
eDHFR-YFP-positive I45 and SKOV3 cells were plated on 96-well plates (Corning #9102) at the density of 25,000 cells/well and 40,000 cells/well, respectively, in complete growth media 24 hours before the assay. […] After incubation at 37 °C for 90 minutes, the wells were aspirated and washed twice with ice-cold PBS. The radioactivity in each well was measured with a Perkin Elmer Wizard gamma counter. The assay was performed three times in triplicates. […] See, Swillens, Molecular pharmacology. 1995; 47(6):1197-203. The corresponding EC50 values were plotted against the receptor concentration/2 to determine the Kd. See, Hulme, British journal of pharmacology. 2010; 161(6):1219-37. The Bmax values were correlated with the total YFP florescence from the wells, with a correction factor of 2.5 and 2.2 for membrane-bound eDHFR-YFP in I45 and SKOV3, respectively, in order to account for decreased fluorescence per molecule from addition of the membrane localization signal to YFP. See, Wu, Science. 2005; 310(5746):310-4; and Bakholdina, Molecules. 2021; 26(13).
For determination of the Kd of [^211At]At-TMP, the binding assay protocol was repeated in I45 and SKOV3 cells expressing cytoplasmic eDHFR-YFP, using 150 μL of 0.06-60 nM [^125I]I-TMP±10 μM TMP for half of each 96-well plate and 50-260 μL of […] [^211At]At-TMP±10 μM TMP for the remaining half. The Bmax of each plate determined from [^125I]I-TMP binding was divided by the assay volumes used for [^211At]At-TMP to calculate the total receptor concentration ([RT]) in each [^211At]At-TMP well. The ligand depletion (δ) in each [^211At]At-TMP well was obtained by dividing the bound radioactivity by total added radioactivity. The assay was performed four times in triplicates. As derived in Supplemental Methods 1, δ^−1 was plotted against [RT]^−1 to determine the Kd as the slope of the linear best-fit line.
Supplemental Method 1. Measurement of the dissociation constant (Kd) of [^211At]At-TMP binding to eDHFR under non-saturating, ligand-depleting conditions. When [Ligand]<<Kd, ligand depletion (6) at equilibrium is
where [R] is the free receptor concentration and [RT]is the total receptor concentration. Since 6 is non-zero, taking the reciprocal of both sides of the equation yields
[formula] • If a δ^−1 vs. [RT]^−1 graph where y=δ^−1 and x=[RT]^−1 is plot,
Therefore, the slope of the linear best-fit line represents the Kd and the y-intercept is 1.

SKOV3 cells = test: Cytotoxicity in SKOV3 cells with subcellular eDHFR-YFP; type: cell-based, human; settings: for RBE: ref. cytoplasmic
Method: (§1) Wild-type and eDHFR-YFP-expressing I45 and SKOV3 cells were seeded on 96-well plates (Corning #3603) at the density of 1,000 cells/well and 3,000 cells/well, respectively, in complete growth media 24 hours before the assay. The following five treatment conditions were applied in complete growth media: 200 μCi/mL ~15 μCi/mL [^211At]At-TMP, 120 μCi/mL-15 μCi/mL free ^211At, 120 μCi/mL-15 μCi/mL [^211At]At-TMP+10 μM TMP, 10 nM-1 μM doxorubicin, and 40 μM−1 mM TMP. After 72 hours of incubation, the surviving fraction of the cells was quantified using CellTiter-Glo (Promega #G9243). See, Makvandi, Molecular cancer therapeutics. 2019; 18(7):1195-204. The assay was performed three times in triplicates. The effective concentration for 50% cell death (EC50) was determined for each treatment condition by fitting the surviving fractions into a non-linear sigmoidal dose-response curve. For eDHFR-YFP-positive cells, the [^211At]At-TMP treatment concentrations were converted to the number of ^211At decays/cell, using the median number of receptors/cell (obtained from YFP fluorescence) and Kd of [^211At]At-TMP. See, Lee, Journal of nuclear medicine. 2020; 61(6):850-6.
(§2) For comparison to the nuclear S-values, the observed cytotoxicity per ^211At decay was also expressed relative to cytoplasmic eDHFR-YFP. […] Finally, the ratio between the isolated cytotoxicity and nuclear S-value was calculated as the RBE for eDHFR-YFP in each subcellular compartment.
(§3) Supplemental Method 2. Calculation of the relative cytotoxicity of ^211At decay in different subcellular compartments. • By the linear-quadratic model for targeted alpha therapy,
(§4) (Survival)=e^−αD-βD^2≈e^−αD • Let N=number of ^211At decays/cell at EC50. Then, the following is obtained:
(§5) ln(0.5)=−αD=−TN • where T is the product of S-value and α, representing cytotoxicity per decay. Let F=fraction of eDHFR in each subcellular compartment. Then, the following can be written:
(§6) [formula] • where capital letters denote the microscopically observed subcellular location of eDHFR and lowercase letters denote the genetically targeted location of eDHFR.
(§7) The measured values of F (FIG. 19) and N (FIG. 28C) were then used to solve for T. DNA-targeted eDHFR observed in the nucleus is assumed to be 100% DNA-bound, and for SKOV3, Nc≈Nm is applied based on the lack of significant difference in EC50.
(§8) Finally, the T values are normalized with Tc to obtain the relative cytotoxicity of ^211At decay in each subcellular compartment compared to the cytoplasm.

I45 cells = test: Cytotoxicity in I45 cells with subcellular eDHFR-YFP; type: cell-based, human; settings: for RBE: ref. cytoplasmic
Method: as §1, §2, §3, §4, §5, §6, §7, §8

[1] = In vitro stability in RPMI 1640 medium; type: physicochemical; settings: 37 °C, up to 6 hours, radio-HPLC
Method: The specific activity of [^211At]At-TMP and [^125I]I-TMP was determined by comparison of radioactivity to the area under 288-nm ultraviolet light peak on radio-HPLC. The in vitro stability of [^211At]At-TMP was examined with incubation in Roswell Park Memorial Institute (RPMI) 1640 medium at 37 °C for up to 6 hours, followed by radio-HPLC analysis.

I45 and SKOV3 cells = test: Cytotoxicity in wild-type and eDHFR-YFP-expressing I45 and SKOV3 cells; type: cell-based, human
Method: After 72 hours of incubation, the surviving fraction of the cells was quantified using CellTiter-Glo (Promega #G9243). See, Makvandi, Molecular cancer therapeutics. […] The assay was performed three times in triplicates. […] See, Lee, Journal of nuclear medicine.

hamster fibroblasts = settings: predominantly nuclear lead-212 vs predominantly cytoplasmic polonium-210; cited from earlier work

In the case of `COc1cc(Cc2cnc(N)nc2N)cc([At])c1OC` [[^211At]At-TMP], the “binding affinity compared to [^125I]I-TMP” value (eDHFR-YFP; I45 and SKOV3 cells) is reported as “lower binding affinity”, the Kd (eDHFR-YFP; I45 and SKOV3 cells) is reported as 2.5 to 4.8 nM and the Kd (eDHFR-YFP; I45 cells) is reported as 4.8 ± 0.1 nM. For the same compound, the Kd (eDHFR-YFP; SKOV3 cells) was 2.5 ± 0.2 nM, the “relative cytotoxicity with reference to cytoplasmic eDHFR” value (from here on “relative cytotoxicity with reference”) (SKOV3 cells; SKOV3, DNA-bound) was 13 and the RBE (SKOV3 cells; SKOV3, DNA-bound) was 3.2. For the same compound, the “relative cytotoxicity with reference” value (SKOV3 cells; SKOV3, membrane-bound) was 1.0, the RBE (SKOV3 cells; SKOV3, membrane-bound) was 1.4 and the “relative cytotoxicity with reference” value (SKOV3 cells; SKOV3, nuclear) was 8.5. The RBE (SKOV3 cells; SKOV3, nuclear) was 2.0, the “relative cytotoxicity with reference” value (I45 cells; I45, DNA-bound) was 10 and the RBE (I45 cells; I45, DNA-bound) was 3.1. The “cytotoxicity, membrane-bound compared to cytoplasmic eDHFR” value (I45 cells; I45, P=0.005) was “higher cytotoxicity compared to cytoplasmic eDHFR”, the “relative cytotoxicity with reference” value (I45 cells; I45, membrane-bound) was 2.8 and the RBE (I45 cells; I45, membrane-bound) was 3.5. The “relative cytotoxicity with reference” value (I45 cells; I45, nuclear) was 7.4, the RBE (I45 cells; I45, nuclear) was 2.3 and the “in vitro stability in aqueous media” value [1] was “stable at 37 °C in aqueous media”. For the same compound, the “cytotoxicity in eDHFR-expressing compared to wild-type cells” value (I45 and SKOV3 cells; 72 h) was “significantly higher cytotoxicity”, the “cytotoxicity per bound decays/cell, DNA-bound and nuclear eDHFR” value (I45 and SKOV3 cells; DNA-bound P=0.017 I45, P=0.012 SKOV3, nuclear P=0.0006 I45, P=0.004 SKOV3) was “the highest cytotoxicity was observed with DNA-bound eDHFR (P=0.017 in I45 and P=0.012 in SKOV3), followed by nuclear eDHFR” and the pharmacologic cytotoxicity (I45 and SKOV3 cells; up to 34 μM (so in the source)) was “absence of pharmacologic cytotoxicity”. The “difference in cytotoxicity wild-type vs eDHFR-expressing, blocked” value (I45 and SKOV3 cells; with 10 μM cold TMP) was “disappearance; also recorded: comparable across the wild-type and eDHFR-YFP-expressing cells”.
For lead-212, the “RBE relative to gamma irradiation” value (hamster fibroblasts) is listed as 4.
